Assay results from US6319702A, “Nucleic acids encoding mutant human carboxypeptidase A enzymes” (Glaxo Wellcome, Inc., priority 1993, dated 2001).
Where two headings read alike, the source gives them in different places.

Columns and labels:
[1] = Stability and biodistribution of prodrugs in vivo (HPLC of plasma and tissues); parameters: species or system mice (CD-1 nude; BALB/C where indicated)
[2] = molecular target: T1, wild type human carboxypeptidase A1 (Homo sapiens, UniProt P15085); assay: Enzyme kinetics of prodrugs with wild type human carboxypeptidase A1 (coupled assay); assay type: biochemical
T1 sequence (P15085 111-419): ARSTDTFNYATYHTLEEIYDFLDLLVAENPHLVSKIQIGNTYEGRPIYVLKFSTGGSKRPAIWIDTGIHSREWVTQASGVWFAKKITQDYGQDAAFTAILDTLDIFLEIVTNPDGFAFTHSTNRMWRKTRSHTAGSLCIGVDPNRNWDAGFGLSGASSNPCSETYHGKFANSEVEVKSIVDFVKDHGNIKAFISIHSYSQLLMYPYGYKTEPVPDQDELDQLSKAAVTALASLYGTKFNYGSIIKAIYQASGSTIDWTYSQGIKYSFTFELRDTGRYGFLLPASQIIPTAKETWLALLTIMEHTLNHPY
Outline: (§1)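 Coupled spectrophotometric assay: released methotrexate converted by excess carboxypeptidase G (17 milliunits) to its pteroate, followed at 315 nm (Δε 9.57 mM^-1 cm^-1). 25° C in 25 mM tris-HCl, 100 mM NaCl, pH 7.4; reaction started with wild-type or mutant carboxypeptidase A. Kinetic constants from initial velocities by Michaelis-Menten analysis.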

[3] = system: 268ala; assay: Enzyme kinetics of prodrugs with 268ala mutant of human CPA1 (coupled assay); assay type: biochemical; conditions: 25° C., pH 7.4
Outline: as §1

[4] = system: 268gly; assay: Enzyme kinetics of prodrugs with 268gly mutant of human CPA1 (coupled assay); assay type: biochemical
Outline: as §1

[5] = system: mutant enzyme; assay: Substrate behaviour with mutant enzyme; assay type: biochemical, human
Description: This type of compound is not useful for ADEPT.

[6] = mouse, in vivo, iv
[7] = in vivo; conditions: mouse, iv

## CN(Cc1cnc2nc(N)nc(N)c2n1)c1ccc(C(=O)N[C@@H](CCC(=O)O)C(=O)N[C@@H](Cc2ccc(O)c(C3CCCC3)c2)C(=O)O)cc1 [Prodrug 13, N-(4-(((2,4-diamino-6-pteridinyl)methyl)methyamino)benzoyl)-L-glutam-1-yl-3-cyclopentyl-L-tyrosine]
[1]; CECUM, 30 min, 50 mg/kg i.p. or i.v., CD-1 nude mice
  concentration of prodrug in cecum: 14.4 nmol/g
[1]; CECUM, 120 min, 50 mg/kg i.p. or i.v., CD-1 nude mice
  concentration of prodrug in cecum: 4.8 nmol/g
[1]; FECES, 30 min, 50 mg/kg i.p. or i.v., CD-1 nude mice
  concentration of prodrug in feces: 665.8 nmol/g
[1]; FECES, 120 min, 50 mg/kg i.p. or i.v., CD-1 nude mice
  concentration of prodrug in feces: 738.4 nmol/g
[1]; KIDNEY, 30 min, 50 mg/kg i.p. or i.v., CD-1 nude mice
  concentration of prodrug in kidney: 3.7 nmol/g
[1]; KIDNEY, 120 min, 50 mg/kg i.p. or i.v., CD-1 nude mice
  concentration of prodrug in kidney: 0.5 nmol/g
[1]; LARGE INTESTINE, 30 min, 50 mg/kg i.p. or i.v., CD-1 nude mice
  concentration of prodrug in large intestine: 7.9 nmol/g
[1]; LARGE INTESTINE, 120 min, 50 mg/kg i.p. or i.v., CD-1 nude mice
  concentration of prodrug in large intestine: 12.5 nmol/g
[1]; LIVER, 30 min, 50 mg/kg i.p. or i.v., CD-1 nude mice
  concentration of prodrug in liver: 47.7 nmol/g
[1]; LIVER, 120 min, 50 mg/kg i.p. or i.v., CD-1 nude mice
  concentration of prodrug in liver: 129.0 nmol/g
[1]; SMALL INTESTINE, 30 min, 50 mg/kg i.p. or i.v., CD-1 nude mice
  concentration of prodrug in small intestine: 373.7 nmol/g
[1]; SMALL INTESTINE, 120 min, 50 mg/kg i.p. or i.v., CD-1 nude mice
  concentration of prodrug in small intestine: 322.1 nmol/g
[1]; SPLEEN, 30 min, 50 mg/kg i.p. or i.v., CD-1 nude mice
  concentration of prodrug in spleen: 0.6 nmol/g
[1]; SPLEEN, 120 min, 50 mg/kg i.p. or i.v., CD-1 nude mice
  concentration of prodrug in spleen: 0.2 nmol/g
[1]; mice, 50 mg/kg
  stability in vivo (in words): stable in vivo
[1]; mouse, cecum, 50 mg/kg, CECUM, 30 min, 50 mg/kg i.p. or i.v., CD-1 nude mice, read-out: stability: percentage of material observed as intact prodrug, cecum
  remaining at 0.5 h: 100%
[1]; mouse, cecum, 50 mg/kg, CECUM, 120 min, 50 mg/kg i.p. or i.v., CD-1 nude mice, read-out: stability: percentage of material observed as intact prodrug, cecum
  remaining at 2 h: 100%
[1]; mouse, feces, 50 mg/kg, FECES, 30 min, 50 mg/kg i.p. or i.v., CD-1 nude mice, read-out: stability: percentage of material observed as intact prodrug, feces (converted)
  remaining at 0.5 h: 100%
[1]; mouse, feces, 50 mg/kg, FECES, 120 min, 50 mg/kg i.p. or i.v., CD-1 nude mice, read-out: stability: percentage of material observed as intact prodrug, feces
  remaining at 2 h: 100%
[1]; mouse, kidney, 50 mg/kg, KIDNEY, 30 min, 50 mg/kg i.p. or i.v., CD-1 nude mice, read-out: stability: percentage of material observed as intact prodrug, kidney
  remaining at 0.5 h: 100%
[1]; mouse, kidney, 50 mg/kg, KIDNEY, 120 min, 50 mg/kg i.p. or i.v., CD-1 nude mice, read-out: stability: percentage of material observed as intact prodrug, kidney
  remaining at 2 h: 100%
[1]; mouse, large intestine, 50 mg/kg, LARGE INTESTINE, 30 min, 50 mg/kg i.p. or i.v., CD-1 nude mice, read-out: stability: percentage of material observed as intact prodrug, large intestine
  remaining at 0.5 h: 100%
[1]; mouse, large intestine, 50 mg/kg, LARGE INTESTINE, 120 min, 50 mg/kg i.p. or i.v., CD-1 nude mice, read-out: stability: percentage of material observed as intact prodrug, large intestine
  remaining at 2 h: 100%
[1]; mouse, liver, 50 mg/kg, LIVER, 30 min, 50 mg/kg i.p. or i.v., CD-1 nude mice, read-out: stability: percentage of material observed as intact prodrug, liver (converted)
  remaining at 0.5 h: 100%
[1]; mouse, liver, 50 mg/kg, LIVER, 120 min, 50 mg/kg i.p. or i.v., CD-1 nude mice, read-out: stability: percentage of material observed as intact prodrug, liver
  remaining at 2 h: 100%
[1]; mouse, plasma, 50 mg/kg, PLASMA, 30 min, 50 mg/kg i.p. or i.v., CD-1 nude mice, read-out: concentration of prodrug in plasma
  concentration at 0.5 h: 3300 nM
[1]; mouse, plasma, 50 mg/kg, PLASMA, 30 min, 50 mg/kg i.p. or i.v., CD-1 nude mice, read-out: stability: percentage of material observed as intact prodrug, plasma
  remaining at 0.5 h: 100%
[1]; mouse, plasma, 50 mg/kg, PLASMA, 120 min, 50 mg/kg i.p. or i.v., CD-1 nude mice, read-out: concentration of prodrug in plasma
  concentration at 2 h: 600 nM
[1]; mouse, plasma, 50 mg/kg, PLASMA, 120 min, 50 mg/kg i.p. or i.v., CD-1 nude mice, read-out: stability: percentage of material observed as intact prodrug, plasma
  remaining at 2 h: 100%
[1]; mouse, small intestine, 50 mg/kg, SMALL INTESTINE, 30 min, 50 mg/kg i.p. or i.v., CD-1 nude mice, read-out: stability: percentage of material observed as intact prodrug, small intestine
  remaining at 0.5 h: 100%
[1]; mouse, small intestine, 50 mg/kg, SMALL INTESTINE, 120 min, 50 mg/kg i.p. or i.v., CD-1 nude mice, read-out: stability: percentage of material observed as intact prodrug, small intestine
  remaining at 2 h: 100%
[1]; mouse, spleen, 50 mg/kg, SPLEEN, 30 min, 50 mg/kg i.p. or i.v., CD-1 nude mice, read-out: stability: percentage of material observed as intact prodrug, spleen
  remaining at 0.5 h: 100%
[1]; mouse, spleen, 50 mg/kg, SPLEEN, 120 min, 50 mg/kg i.p. or i.v., CD-1 nude mice, read-out: stability: percentage of material observed as intact prodrug, spleen
  remaining at 2 h: 100%
[2]
  human CPA catalyzed reaction (in words): not measureable
  kcat/Km for human CPA1 compared with that of the L-phenylalanine prodrug (in words): much lower
  substrate for wild type CPA (in words): not for the wild type enzyme
[2]; Human CPA1, rate too slow to assay
  kcat (symbol ND): ND (not determined; rate to slow assay. kcat ≤ 0.0005/sec.)
[3]
  Km: 50 µM
  kcat: 0.0006 s⁻¹
[4]; 268Gly
  kcat/Km: 180000 M⁻¹ s⁻¹
[4]; 268gly, 25° C., pH 7.4
  Km: 18 µM
  kcat: 3 s⁻¹
[5]
  substrate for a mutant enzyme (in words): good substrates for a mutant enzyme
[6]
  maximum tolerated dose (MTD): > 50 mg/kg
[7]
  MTD: ≥ 50 mg/kg
